Reference: US9199965B2, “Benzoimidazole derivatives and pharmaceutical composition comprising the same” (Daewoong Co., Ltd., priority 2005, dated 2015)

Columns and labels:
rat TRPV1 = biological target: T1, rat TRPV1 (Rattus norvegicus, UniProt O35433); test: Assay for inhibitory activity against VR1 patch clamp activity (capsaicin current, inside-out patch); type: cell-based; settings: 1 μM compound with 10 μM capsaicin; rat TRPV1-transfected HEK293, inside-out patch; relative to capsaicin current before compound
T1 construct: expressed in transfected cells; host or cells: HEK293
T1 sequence (O35433 whole entry): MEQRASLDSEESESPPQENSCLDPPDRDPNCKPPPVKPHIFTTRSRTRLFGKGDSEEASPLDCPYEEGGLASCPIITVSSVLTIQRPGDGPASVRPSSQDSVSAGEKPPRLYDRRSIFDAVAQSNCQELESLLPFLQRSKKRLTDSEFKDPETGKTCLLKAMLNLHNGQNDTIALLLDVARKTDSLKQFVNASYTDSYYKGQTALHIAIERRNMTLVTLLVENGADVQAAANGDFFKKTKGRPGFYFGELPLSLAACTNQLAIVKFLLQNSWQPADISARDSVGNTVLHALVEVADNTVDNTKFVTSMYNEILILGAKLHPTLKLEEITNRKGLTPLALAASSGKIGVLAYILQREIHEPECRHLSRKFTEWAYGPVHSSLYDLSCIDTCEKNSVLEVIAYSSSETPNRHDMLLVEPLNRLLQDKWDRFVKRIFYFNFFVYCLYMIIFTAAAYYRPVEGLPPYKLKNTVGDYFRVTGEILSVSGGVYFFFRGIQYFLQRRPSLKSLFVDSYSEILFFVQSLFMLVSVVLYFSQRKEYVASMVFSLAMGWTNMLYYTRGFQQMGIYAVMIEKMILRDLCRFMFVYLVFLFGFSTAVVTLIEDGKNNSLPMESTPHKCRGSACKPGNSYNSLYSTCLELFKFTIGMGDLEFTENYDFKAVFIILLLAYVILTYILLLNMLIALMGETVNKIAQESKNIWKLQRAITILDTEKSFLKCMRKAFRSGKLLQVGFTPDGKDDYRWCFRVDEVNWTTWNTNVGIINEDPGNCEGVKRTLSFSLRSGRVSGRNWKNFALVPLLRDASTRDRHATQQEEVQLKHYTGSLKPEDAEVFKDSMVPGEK
Protocol: Each of the compounds synthesized in the examples were dissolved in dimethyl sulfoxide (DMSO) at a concentration of 10 mM. For use in the assay for inhibitory activity against patch clamp activity, the solutions were diluted to a concentration of 1 μM with the same physiological saline as in the pipette solution of Table 1, below.
2) Assay for Inhibitory Activity Against VR1 Patch Clamp Activity
In this experiment, changes in VR1 activity were recorded in current using an electrophysiological technique.
For use in this experiment, a rat TRPV1 cDNA was transfected into a subcultured HEK293 strain with the aid of lipofectamin.
The rat TRPV1 gene-transfected HEK293 cells were detached from the cell culture dishes with trypsin and distributed on a patch clamp recording chamber.
A cover glass slip on the bottom of the patch clamp recording chamber was treated for 15 min or longer with a […] poly-L-lysine solution so that the HEK cells would readily adhere thereto. Cellular membranes were ruptured at room temperature (˜25° C.) from randomly selected HEK cells to perform an inside-out patch clamp technique. 10 μM of capsaicin was fed into the chamber (cytoplasmic side) to activate a capsaicin current through the VR1. When the capsaicin current reached a stable stage, each compound was added along with 10 μM of capsaicin to record the inhibitory activity of the compounds with regard to the current. The inhibition was expressed as percentages.
Detected current was amplified using a Digidata 1200B A/D converter and an Axopatch 1D amplifier (Axon instruments Inc.), and the data were recorded and analyzed with the aid of a computer. The inhibitory activity of each compound was expressed as a percentage relative to the capsaicin current immediately before the administration of each compound.

human vanilloid-1 (hVR1) = biological target: T2, human vanilloid-1 (hVR1) (Homo sapiens, UniProt Q8NER1); test: Calcium influx of vanilloid receptor in hVR1-HEK293 cells (capsaicin-induced, Fluo-3/AM); type: cell-based; settings: 1 μM capsaicin-induced intracellular calcium influx, read-out: Inhibitory Activity IC50
T2 construct: expressed in transfected cells; host or cells: HEK293 Tet-on (hVR1-HEK293), doxycycline-induced
T2 sequence (Q8NER1 whole entry): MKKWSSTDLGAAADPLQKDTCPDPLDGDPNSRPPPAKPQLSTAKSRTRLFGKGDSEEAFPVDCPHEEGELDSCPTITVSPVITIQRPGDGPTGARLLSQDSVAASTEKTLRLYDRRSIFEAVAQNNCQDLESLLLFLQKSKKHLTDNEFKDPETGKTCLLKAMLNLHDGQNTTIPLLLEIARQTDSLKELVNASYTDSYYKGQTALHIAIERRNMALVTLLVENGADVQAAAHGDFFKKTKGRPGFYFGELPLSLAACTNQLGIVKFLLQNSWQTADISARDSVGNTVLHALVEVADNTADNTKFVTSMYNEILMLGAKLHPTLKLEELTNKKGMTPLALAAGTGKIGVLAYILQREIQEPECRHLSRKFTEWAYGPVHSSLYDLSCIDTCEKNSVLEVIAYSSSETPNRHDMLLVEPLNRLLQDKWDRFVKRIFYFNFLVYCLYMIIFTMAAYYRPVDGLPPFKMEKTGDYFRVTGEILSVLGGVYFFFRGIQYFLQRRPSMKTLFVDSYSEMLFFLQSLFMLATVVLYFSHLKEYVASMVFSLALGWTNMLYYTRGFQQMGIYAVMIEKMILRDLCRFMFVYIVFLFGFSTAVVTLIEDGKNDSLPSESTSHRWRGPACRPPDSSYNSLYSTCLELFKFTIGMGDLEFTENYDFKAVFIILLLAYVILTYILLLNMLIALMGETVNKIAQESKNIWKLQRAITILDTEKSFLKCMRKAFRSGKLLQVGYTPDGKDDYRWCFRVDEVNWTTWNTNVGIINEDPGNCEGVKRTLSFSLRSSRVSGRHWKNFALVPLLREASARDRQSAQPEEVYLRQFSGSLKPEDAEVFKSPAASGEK
Protocol: Experiments for calcium influx were performed to measure the activity of the compounds as antagonists.
The cell strain hVR1-HEK293 is the human embryonic kidney (HEK) 293 Tet-on cell transfected with a human vanilloid-1 gene (pTRE2hyg-hVR1, 7.8 kb), which is capable of controlling the expression of VR1 according to the administration of deoxycycline, a tetracycline derivative analog. In a medium supplemented with deoxycycline two days before calcium influx experiments, the cell strain was cultured to induce the expression of VR1. After being grown to a confluency of about 80% in T75 flasks, hVR1-HEK293 was detached from the flask using trypsin. Cells harvested by centrifugation were suspended in a medium supplemented with 1 μg/mL of deoxycycline and diluted to a density of 2-4×10^5 cells/mL, after which a 100 μL aliquot of the cell suspension was added to each well of 96 well black plates. Before the measurement of calcium influx, the cells were incubated for two days at 37° C. in a 5% CO2 incubator.
For use in calcium influx experiments, each compound was dissolved in dimethyl sulfoxide (DMSO).
To measure an intracellular calcium influx, cells were incubated at 37° C. for 90 min in a medium containing the calcium indicator Fluo-3/AM so as to allow the fluorescent dye to penetrate into the cells. Then, the cells were washed three times with D-PBS (Dulbecco's phosphate buffered saline) containing 10 mM HEPES to remove the fluorescent dye which remained outside. 193 μL aliquot of D-PBS was added to each well, followed by the addition of various concentrations of compounds thereto. In order to measure the antagonistic activity of the compounds, calcium influx was induced by treatment with 1 μM capsaicin. The inhibitory effect of each compound on 1 μM capsaicin-induced intracellular calcium influx according to compound concentration was measured using a fluorescent analyzer and the data thus obtained were analyzed on the basis of the Hill's equation.

[1] = tested on: ICR male mice (PBQ-induced writhing); test: PBQ-induced writhing test for analgesic effect; type: in vivo; settings: Mus musculus, 1 h, 20 mg/kg oral, one hour before intraabdominal PBQ (0.02%), read-out: % Inhibition (decrease in number of writhes compared to control)
Protocol: A PBQ-induced writhing test was conducted in mice to assay for the analgesic effect of the novel compounds. Five-week-old ICR male mice were treated with PBQ (phenyl-p-quinone, 0.02%). A suspension of 20 mg of test material in 10 mL of physiological saline was used per kg of weight of mice. Test materials in combination with a carrier were orally administered one hour before the intraabdominal injection of PBQ in a dose of 10 mL per kg weight. From 5 min after the injection, individual mice in each test group were measured for numbers of writhes at regular intervals of 10 min. Analgesic effects of test compounds were expressed as percentages of the decrease in number of writhes compared to a control. [% Inhibition=(Control administered with carrier alone−Group administered with test material)/control administered with carrier alone×100]

SMILES | inhibition at 1 µM (rat TRPV1) | IC50 (human vanilloid-1 (hVR1)) | inhibition in vivo at 20 mg/kg [1]
c1cnc2[nH]c(-c3ccc(-n4cccc4)cc3)nc2c1 [Compound 179, 2-(4-pyrrol-1-ylphenyl)-3H-imidazo[4,5-b]pyridine] | 100% | – | –
FC(F)(F)c1ccc2nc(-c3ccc(Oc4ccccc4)cc3)[nH]c2c1 [Compound 189, 2-(4-phenoxyphenyl-6-trifluoromethyl)-1H-benzoimidazole] | 90% | – | –
Clc1ccc2nc(-c3ccc(Oc4ccccc4)cc3)[nH]c2c1 [Compound 191, 6-chloro-2-(4-phenoxyphenyl)-1H-benzoimidazole] | 60% | – | –
FC(F)(F)c1ccc2nc(-c3ccc(-n4cccc4)cc3)[nH]c2c1 [Compound 178, 2-(4-pyrrol-1-ylphenyl]-6-trifluoromethyl-1H-benzoimidazole] | 20% | – | –
CC(C)(C)c1ccc2nc(-c3ccc(-c4ncc(Cl)cc4Cl)cc3F)[nH]c2c1 [Compound 70, 6-tert-butyl-2-[4-(3,5-dichloropyridin-2-yl)-2-fluorophenyl]-1H-benzoimidazole] | 45% | – | –
CC(C)(C)c1ccc2nc(-c3ccc(-c4ncc(Cl)cc4Cl)c(Cl)c3)[nH]c2c1 [Compound 118, 6-tert-butyl-2-[3-chloro-4-(3,5-dichloropyridin-2-yl)phenyl]-1H-benzoimidazole] | 93% | 313 nM | –
CC(C)(C)c1ccc2nc(-c3ccc(-c4ncc(Cl)cc4Cl)cc3)[nH]c2c1 [Compound 25, 6-tert-butyl-2-[4-(3,5-dichloropyridin-2-yl)phenyl]-1H-benzoimidazole] | – | 100 nM | 23%
CC(C)(C)c1ccc2nc(-c3ccc(-n4cccc4)cc3)[nH]c2c1 [Compound 181, 6-tert-butyl-2-(4-pyrrol-1-ylphenyl]-1H-benzoimidazole] | 40% | 221 nM | –
FC(F)(F)c1ccc2nc(-c3ccc(-c4ccccc4)cc3)[nH]c2c1 [Compound 183, 2-biphenyl-4-yl-6-trifluoromethyl-1H-benzoimidazole] | 17% | – | –
COc1ccc2nc(-c3ccc(Oc4ccccc4)cc3)[nH]c2c1 [Compound 194, 6-methoxy-2-(4-phenoxyphenyl)-1H-benzoimidazole] | 30% | – | –
FC(F)(F)c1cc(C(F)(F)F)c2nc(-c3ccc(-c4ccccn4)c4ccccc34)[nH]c2c1 [Compound 115, 2-(4-pyridin-2-ylnaphthalen-1-yl)-4,6-bistrifluoromethyl-1H-benzoimidazole] | 71% | – | –
FC(F)(F)c1ccc2nc(-c3ccc(-c4ncc(Cl)cc4Cl)cn3)[nH]c2c1 [Compound 151, 3,5-dichloro-6′-(6-trifluoromethyl-1H-benzoimidazole-2-yl)-[2,3′]bipyridine] | 84% | 97 nM | –
CC(C)(C)c1ccc2nc(-c3ccc(-c4ncc(C(F)(F)F)cc4Cl)c(Cl)c3)[nH]c2c1 [Compound 121, 6-tert-butyl-2-[3-chloro-4-(3-chloro-5-trifluoromethylpyridin-2-yl)phenyl]-1H-benzoimidazole] | 76% | – | –
FC(F)(F)c1cc(Cl)c2nc(-c3ccc(-c4ncccc4C(F)(F)F)cn3)[nH]c2c1 [Compound 161, 6′-(4-chloro-6-trifluoromethyl-1H-benzoimidazole-2-yl)-3-trifluoromethyl-[2,3′]bipyridine and 6′-(5-trifluoromethyl-7-chloro-1H-benzoimidazole-2-yl)-3-trifluoromethyl-[2,3′]bipyridine] | 58% | 23 nM | –
CC(C)(C)c1ccc2nc(-c3ccc(-c4ccccn4)c(Cl)c3)[nH]c2c1 [Compound 126, 6-tert-butyl-2-(3-chloro-4-pyridin-2-ylphenyl)-1H-benzoimidazole] | 87% | 105 nM | –
COc1ccc2nc(-c3ccc(-c4ncccc4Cl)cc3)[nH]c2c1 [Compound 5, 2-[4-(3-chloropyridin-2-yl)phenyl]-6-methoxy-1H-benzoimidazole] | 10% | 6040 nM | –
FC(F)(F)c1cccnc1-c1ccc(-c2nc3ncc(Br)cc3[nH]2)nc1 [Compound 167, 6′-(6-bromo-1H-imidazo[4,5-b]pyridine-2-yl)-3-trifluoromethyl[2,3′]bipyridine] | – | – | 55%
Cc1ccc2nc(-c3ccc(-c4ncccc4Cl)cc3)[nH]c2c1C [Compound 10, 2-[4-(3-chloropyridin-2-yl)phenyl]-6,7-dimethyl-1H-benzoimidazole] | 80% | 114 nM | –
FC(F)(F)c1cnc2nc(-c3ccc(-c4ncccc4Cl)cc3)[nH]c2c1 [Compound 8, 2-[4-(3-chloropyridin-2-yl)phenyl]-6-trifluoromethyl-1H-imidazo[4,5-b]pyridine] | 41% | 31 nM | –
CC(C)(C)c1ccc2nc(-c3ccc(-c4ncccc4C(F)(F)F)cc3)[nH]c2c1 [Compound 30, 6-tert-butyl-2-[4-(3-trifluoromethylpyridin-2-yl)phenyl]-1H-benzoimidazole] | 96% | 23 nM | –
FC(F)(F)c1ccc2nc(-c3ccc(-c4ncc(Cl)cc4Cl)c(Cl)c3)[nH]c2c1 [Compound 117, 2-[3-chloro-4-(3,5-dichloropyridin-2-yl)phenyl]-6-trifluoromethyl-1H-benzoimidazole] | 80% | 525 nM | –
FC(F)(F)c1cnc2nc(-c3ccc(-c4ncccc4C(F)(F)F)cc3)[nH]c2c1 [Compound 34, 6-trifluoromethyl-2-[4-(3-trifluoromethylpyridin-2-yl)phenyl]-1H-imidazo[4,5-b]pyridine] | 16% | 26 nM | –
FC(F)(F)c1ccc2nc(-c3ccc(-c4ncccc4Cl)c4ccccc34)[nH]c2c1 [Compound 104, 2-[4-(3-chloropyridin-2-yl)naphthalen-1-yl]-6-trifluoromethyl-1H-benzoimidazole] | 86% | 31 nM | –
CC(C)(C)c1ccc2nc(-c3ccc(-c4ncccc4Cl)c(Cl)c3)[nH]c2c1 [Compound 116, 6-tert-butyl-2-[3-chloro-4-(3-chloropyridin-2-yl)phenyl]-1H-benzoimidazole] | 30% | – | –
FC(F)(F)c1cccnc1-c1ccc(-c2nc3ccc(Cl)cc3[nH]2)cc1 [Compound 32, 6-chloro-2-[4-(3-trifluoromethylpyridin-2-yl)phenyl]-1H-benzoimidazole] | 78% | 13 nM | –
FC(F)(F)c1cccnc1-c1ccc(-c2nc3ccc(N4CCOCC4)cc3[nH]2)nc1 [Compound 169, 6′-(6-morpholin-4-yl-1H-benzoimidazo-2-yl)-3-trifluoromethyl-[2,3′]bipyridine] | – | – | 57%
Clc1ccc2nc(-c3ccc(-c4ncccc4Cl)cc3)[nH]c2c1 [Compound 2, 6-chloro-2-[4-(3-chloropyridin-2-yl)phenyl]-1H-benzoimidazole] | 45% | 8570 nM | –
